Laboratory results reported in ChEMBL document CHEMBL3352127, “Synthesis of oleanolic acid derivatives: In vitro, in vivo and in silico studies for PTP-1B inhibition” (Eur J Med Chem, 2014).
Values belong to the molecule of their own block, whether it stands above or below them. Activity calls are given as the source filed them. The rule behind the calls is not given here.

Assays:
[1] = target: T1, Tyrosine-protein phosphatase non-receptor type 1 (Homo sapiens, UniProt P18031); assay: Inhibition of purified human GST-tagged PTP-1B using p-nitrophenylphosphate as substrate by spectrophotometry
T1 sequence (P18031 whole entry): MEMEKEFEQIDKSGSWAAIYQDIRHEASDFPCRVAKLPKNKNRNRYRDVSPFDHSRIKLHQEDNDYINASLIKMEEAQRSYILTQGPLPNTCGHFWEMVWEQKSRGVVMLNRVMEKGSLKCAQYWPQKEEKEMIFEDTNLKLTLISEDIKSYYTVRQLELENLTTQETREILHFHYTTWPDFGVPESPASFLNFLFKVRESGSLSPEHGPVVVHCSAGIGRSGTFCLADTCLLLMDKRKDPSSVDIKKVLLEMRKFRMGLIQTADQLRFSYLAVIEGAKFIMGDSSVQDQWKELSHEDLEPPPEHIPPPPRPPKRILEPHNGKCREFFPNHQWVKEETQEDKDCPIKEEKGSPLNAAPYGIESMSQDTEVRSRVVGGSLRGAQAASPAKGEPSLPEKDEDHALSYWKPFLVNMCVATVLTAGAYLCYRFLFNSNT

[2] = target: T2, Tyrosine-protein phosphatase non-receptor type 2 (Homo sapiens, UniProt P17706); assay: Inhibition of TC-PTP (unknown origin) using p-nitrophenylphosphate as substrate by spectrophotometry
T2 sequence (P17706 whole entry): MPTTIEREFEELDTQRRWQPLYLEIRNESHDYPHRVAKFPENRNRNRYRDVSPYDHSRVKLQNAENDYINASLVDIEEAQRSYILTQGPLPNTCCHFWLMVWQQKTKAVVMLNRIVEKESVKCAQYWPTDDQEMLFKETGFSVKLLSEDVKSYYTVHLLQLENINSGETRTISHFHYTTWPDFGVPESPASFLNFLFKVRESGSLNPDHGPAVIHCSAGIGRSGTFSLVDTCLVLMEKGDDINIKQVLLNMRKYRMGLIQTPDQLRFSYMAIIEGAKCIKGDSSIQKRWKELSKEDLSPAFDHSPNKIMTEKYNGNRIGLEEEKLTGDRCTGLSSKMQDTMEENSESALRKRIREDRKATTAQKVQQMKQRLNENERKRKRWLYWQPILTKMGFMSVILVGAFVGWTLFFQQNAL

Rattus norvegicus [3] = assay: Antidiabetic activity in NIDDM Wistar rat model assessed as reduction blood glucose level at 50 mg/kg, po measured after 3 hrs post dose by glucometry; format: functional; parameters: scale not given: the % may be the effect or the level left
[4] = target: T3, Low molecular weight phosphotyrosine protein phosphatase (Homo sapiens, UniProt P24666); assay: Inhibition of human LMW-PTP IF2 using p-nitrophenylphosphate as substrate by spectrophotometry
T3 sequence (P24666 whole entry): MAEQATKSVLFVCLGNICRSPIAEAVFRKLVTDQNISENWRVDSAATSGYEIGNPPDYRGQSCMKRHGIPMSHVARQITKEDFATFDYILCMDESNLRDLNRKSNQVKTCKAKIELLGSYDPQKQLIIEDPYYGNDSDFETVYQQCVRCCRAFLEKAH

Rattus norvegicus [5] = assay: Antidiabetic activity in NIDDM Wistar rat model assessed as reduction blood glucose level at 50 mg/kg, po measured after 1 hr post dose by glucometry; format: functional, organism-based; parameters: dose 50 mg/kg
[6] = target: T3, Low molecular weight phosphotyrosine protein phosphatase; assay: Inhibition of human LMW-PTP IF1 using p-nitrophenylphosphate as substrate by spectrophotometry
[7] = target: T1, Tyrosine-protein phosphatase non-receptor type 1; assay: Non-competitive inhibition of purified human GST-tagged PTP-1B using p-nitrophenylphosphate as substrate by double-reciprocal plot method
[8] = target: T1, Tyrosine-protein phosphatase non-receptor type 1; assay: Mixed-type inhibition of purified human GST-tagged PTP-1B using p-nitrophenylphosphate as substrate by double-reciprocal plot method

IC50 [1]: 16.2 µM
Compound: CC1(C)CC[C@]2(C(=O)O)CC[C@]3(C)C(=CC[C@@H]4[C@@]5(C)CC[C@H](OC(=O)c6ccccc6)C(C)(C)[C@@H]5CC[C@]43C)[C@@H]2C1

IC50 [1]: 8.6 µM
Compound: CO[C@H]1CC[C@]2(C)[C@H]3CC=C4[C@@H]5CC(C)(C)CC[C@]5(C(=O)O)CC[C@@]4(C)[C@]3(C)CC[C@H]2C1(C)C

IC50 [2]: 26 µM
IC50 [4]: 47.4 µM
IC50 [6]: 16.4 µM
Ki [7]: 4.8 µM
IC50 [1]: 5.3 µM
Compound: CCO[C@H]1CC[C@]2(C)[C@H]3CC=C4[C@@H]5CC(C)(C)CC[C@]5(C(=O)O)CC[C@@]4(C)[C@]3(C)CC[C@H]2C1(C)C
Activity (Rattus norvegicus [3]): >20%
Activity (Rattus norvegicus [5]): inactive

IC50 [1]: 21.5 µM
Compound: CC(=O)O[C@H]1CC[C@]2(C)[C@H]3CC=C4[C@@H]5CC(C)(C)CC[C@]5(C(=O)O)CC[C@@]4(C)[C@]3(C)CC[C@H]2C1(C)C [ACETYL OLEANOLIC ACID]

IC50 [2]: 11.8 µM
Ki [8]: 2.1 µM
IC50 [4]: 12.3 µM
IC50 [6]: 6.9 µM
IC50 [1]: 6.1 µM
Compound: CC1(C)CC[C@]2(C(=O)O)CC[C@]3(C)C(=CC[C@@H]4[C@@]5(C)CC[C@H](OC(=O)/C=C/c6ccccc6)C(C)(C)[C@@H]5CC[C@]43C)[C@@H]2C1
Activity (Rattus norvegicus [3]): Active
Activity (Rattus norvegicus [5]): Active

IC50 [1]: 17.8 µM
Compound: C/C=C/C(=O)O[C@H]1CC[C@]2(C)[C@H]3CC=C4[C@@H]5CC(C)(C)CC[C@]5(C(=O)O)CC[C@@]4(C)[C@]3(C)CC[C@H]2C1(C)C

IC50 [1]: 36.5 µM
Compound: CCCO[C@H]1CC[C@]2(C)[C@H]3CC=C4[C@@H]5CC(C)(C)CC[C@]5(C(=O)O)CC[C@@]4(C)[C@]3(C)CC[C@H]2C1(C)C
